Data from patent US9546172B2, “Pyrazolo[3,4-d]pyrimidine and pyrazolo[2,3-d]pyrimidine compounds as kinase inhibitors” (Pharmacyclics LLC, priority 2011, dated 2017).

Target: T1, Btk (Homo sapiens, UniProt Q06187)
T1 construct: purified from insect cells as a full-length construct containing a N-terminal 6×-His tag; 6xHis (N); host or cells: insect cells (baculovirus Sf21 in Method B)
Experiment: Btk in vitro inhibitory activity (one of Methods A, B, C)
Type: biochemical
Settings: determined in one of three in vitro assays (Examples 125-127)
Experimental: The Btk IC50s of compounds disclosed herein was determined in one of the three in vitro assays described in Examples 125-127.
Btk kinase activity was determined using a time-resolved fluorescence resonance energy transfer (TR-FRET) methodology. Measurements were performed in a reaction volume of 50 μL using 96-well assay plates. […] The reaction was quenched by the addition of 1.2 equivalents of EDTA (relative to divalent cation) in 25 μL of 1× Lance buffer (Perkin-Elmer). Streptavidin-APC (Perkin-Elmer) and Eu-labeled p-Tyr100 antibody (Perkin-Elmer) in 1× Lance buffer were added in a 25 μL volume to give final concentrations of 100 nM and 2.5 nM, respectively, and the mixture was allowed to incubate for one hour. The TR-FRET signal was measured on a multimode plate reader with an excitation wavelength (λEx) of 330 nm and detection wavelengths (λEm) of 615 and 665 nm. Activity was determined by the ratio of the fluorescence at 665 nm to that at 615 nm. For each compound, enzyme activity was measured at various concentrations of compound. Negative control reactions were performed in the absence of inhibitor in replicates of six, and two no-enzyme controls were used to determine baseline fluorescence levels Inhibition constants, Ki(app), were obtained using the program BatchKi (Kuzmic et al. (2000), Anal. Biochem. 286:45-50). IC50s were obtained according to the equation: IC50={Ki(app)/(1+[ATP]/Km^ATP)}+[E]total/2; For all kinases, [ATP]=Km^ATP, [Btk]total=0.5 nM and [Lck]total=6 nM.
Kinase activity is measured in vitro using electrophoretic mobility shift assay. The kinase reactions are assembled in a total volume of 25 μL in 384 well plates. […] The reaction is incubated for one hour and is quenched by the addition of 45 μL of termination buffer (100 mM HEPES, pH7.5, 0.01% Triton X-100, 30 mM EDTA). The terminated reactions are analyzed using 12 channel LabChip® 3000 microfluidic detection instrument (Caliper Life Sciences). The enzymatic phosphorylation of the peptide results in a change in net charge, enabling electrophoretic separation of product from substrate peptide. As substrate and product peptides are separated, two peaks of fluorescence are observed. Change in the relative fluorescence intensity of the substrate and product peaks is the parameter measured, reflecting enzyme activity. In the presence of an inhibitor, the ratio between product and substrate is altered: the signal of the product decreases, while the signal of the substrate increases.
Activity in each sample is determined as the product to sum ratio (PSR): P/(S+P), where P is the peak height of the product peptide and S is the peak height of the substrate peptide. For each compound, enzyme activity is measured at various concentrations (12 concentrations of compound spaced by 3× dilution intervals). Negative control samples (0%-inhibition in the absence of inhibitor) and positive control samples (100%-inhibition, in the presence of 20 mM EDTA) are assembled in replicates of four and are used to calculate %-inhibition values for each inhibitor at each concentration. Percent inhibition (Pinh) is determined using following equation: Pinh=(PSR0%−PSRinh)/(PSR0%−PSR100%)*100, where PSRinh is the product sum ratio in the presence of inhibitor, PSR0% is the average product sum ration in the absence of inhibitor and PSR100% is the average product sum ratio in 100%-inhibition control samples;
The IC50 values of inhibitors are determined by 4 parameter sigmoidal dose-response model fitting of the inhibition curves (Pinh versus inhibitor concentration) using XLfit 4 software.
Human Btk kinase (Genbank accession # NP_000052) was purified from insect cells as a full-length construct containing a N-terminal 6×-His tag. Btk kinase activity was determined using a radiometric filter binding assay. Measurements are performed in a low reaction volume 384-well assay plates. […]

T1 sequence (Q06187 whole entry): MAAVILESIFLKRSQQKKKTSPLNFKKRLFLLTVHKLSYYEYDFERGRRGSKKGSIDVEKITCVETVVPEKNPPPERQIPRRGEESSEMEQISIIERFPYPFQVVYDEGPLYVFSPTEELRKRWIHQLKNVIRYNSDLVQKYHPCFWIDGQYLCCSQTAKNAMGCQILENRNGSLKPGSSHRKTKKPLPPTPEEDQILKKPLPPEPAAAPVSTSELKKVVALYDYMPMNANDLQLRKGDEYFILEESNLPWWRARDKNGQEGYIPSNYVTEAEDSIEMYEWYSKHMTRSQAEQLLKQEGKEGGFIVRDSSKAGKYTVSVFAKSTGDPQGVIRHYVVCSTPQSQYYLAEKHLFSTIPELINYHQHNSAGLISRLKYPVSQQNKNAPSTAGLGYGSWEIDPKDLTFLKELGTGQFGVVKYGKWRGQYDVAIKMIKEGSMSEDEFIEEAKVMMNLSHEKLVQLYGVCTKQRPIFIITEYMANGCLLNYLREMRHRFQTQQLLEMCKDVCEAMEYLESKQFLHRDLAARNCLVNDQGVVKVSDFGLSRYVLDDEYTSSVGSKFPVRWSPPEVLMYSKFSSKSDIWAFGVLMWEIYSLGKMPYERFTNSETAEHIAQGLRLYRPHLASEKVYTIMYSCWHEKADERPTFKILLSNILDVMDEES

Row | SMILES | IC50 [nM]
1 | COc1cc(-c2nn(-c3ccc(F)c(N(C)C(=O)/C=C/CN(C)C)c3)c3ncnc(N)c23)ccc1C [Example 63] | < 100
2 | COc1cc(-c2nn([C@@H]3CCN(C(=O)/C=C/CN(C)C)C3)c3ncnc(N)c23)c(F)cc1C [Example 54] | < 100
3 | C=CC(=O)N1CCC[C@@H](n2nc(-c3ccc(C)c(OC)c3)c3c(N)ncnc32)C1 [Example 84] | < 100
4 | C=CC(=O)N1CC[C@@H](n2nc(-c3ccc(F)cc3)c3c(N)ncnc32)C1 [Example 85c] | < 100
5 | CN(C(=O)/C=C/CN(C)C1CC1)c1cc(-n2nc(-c3ccc(Cl)cc3)c3c(N)ncnc32)ccc1F [Example 69] | < 100
6 | COc1cc(-c2nn([C@@H]3CCCN(C(=O)/C=C/CN(C)C)C3)c3ncnc(N)c23)ccc1C [Example 45] | < 100
7 | COc1cc(-c2nn([C@@H]3CCN(C(=O)/C=C/CN(C)C4CC4)C3)c3ncnc(N)c23)ccc1C [Example 60] | < 100
8 | COc1cc(-c2nn(-c3cccc(N(C)C(=O)/C=C/CN4CCOCC4)c3)c3ncnc(N)c23)ccc1C [Example 44] | < 100
9 | C=CC(=O)N(C)c1cccc(-n2nc(-c3ccc(C)c(OC)c3)c3c(N)ncnc32)c1 [Example 37] | < 100
10 | CN(C)C/C=C/C(=O)N(C)c1cc(-n2nc(-c3ccc(Cl)cc3)c3c(N)ncnc32)ccc1F [Example 51] | < 100
11 | COc1cc(-c2nn(C3CN(C(=O)/C=C/CN(C)C)C3)c3ncnc(N)c23)ccc1C [Example 64] | < 100
12 | C=CC(=O)N1CC[C@@H](n2nc(-c3ccc(C)cc3)c3c(N)ncnc32)C1 [Example 85d] | < 100
13 | CN(C(=O)/C=C/CN(C)C1CC1)c1ccc(-n2nc(-c3ccc(Cl)cc3)c3c(N)ncnc32)cc1 [Example 32] | < 100
14 | CN(C(=O)/C=C/CN(C)C1CCC1)c1ccc(-n2nc(-c3ccc(Cl)cc3)c3c(N)ncnc32)cc1 [Example 34] | < 100
15 | C=CC(=O)N1CCC(n2nc(-c3ccc(C)c(OC)c3)c3c(N)ncnc32)CC1 [Example 78] | < 100
16 | CN(C)C/C=C/C(=O)N1CC(n2nc(-c3ccc(Cl)cc3)c3c(N)ncnc32)C1 [Example 65] | < 100
17 | COc1cc(-c2nn(C[C@H]3CCN(C(=O)/C=C/CN(C)C)C3)c3ncnc(N)c23)ccc1C [Example 72] | < 100
18 | COc1cc(-c2nn(-c3ccc(N(C)C(=O)/C=C/CN(C)C4CCC4)cc3)c3ncnc(N)c23)ccc1C [Example 40] | < 100
19 | COc1cc(-c2nn(C3CN(C(=O)/C=C/CN(C)C4CC4)C3)c3ncnc(N)c23)ccc1C [Example 67] | < 100
20 | CN(C/C=C/C(=O)N1CC[C@@H](n2nc(-c3ccc(Cl)cc3)c3c(N)ncnc32)C1)C1CC1 [Example 61] | < 100
21 | C=CC(=O)N1CC[C@@H](n2nc(-c3ccc(C)c(OC)c3)c3c(N)ncnc32)C1 [Example 83] | < 100
22 | CN(C)C/C=C/C(=O)N(C)c1cccc(-n2nc(-c3ccc(Cl)cc3)c3c(N)ncnc32)n1 [Example 31] | < 100
23 | COc1cc(-c2nn(C3CCN(C(=O)/C=C/CN(C)C)CC3)c3ncnc(N)c23)ccc1C [Example 53] | < 100
24 | COc1cc(-c2nn(-c3cccc(N(C)C(=O)/C=C/CN(C)C)c3)c3ncnc(N)c23)c(F)cc1C [Example 55] | < 100
25 | C=CC(=O)N1CCC(n2nc(-c3ccc(Cl)cc3)c3c(N)ncnc32)CC1 [Example 80] | < 100
26 | C=CC(=O)N1CC(n2nc(-c3ccc(Cl)cc3)c3c(N)ncnc32)C1 [Example 81] | < 100

Row | SMILES | IC50 [nM]
27 | CN(C)C/C=C/C(=O)N1CCC(n2nc(-c3ccc(Cl)cc3)c3c(N)ncnc32)CC1 [Example 47] | < 100
28 | COc1cc(-c2nn(C[C@@H]3CCCN3C(=O)/C=C/CN(C)C)c3ncnc(N)c23)ccc1C [Example 49] | < 100
29 | CN(C/C=C/C(=O)N1CC(n2nc(-c3ccc(Cl)cc3)c3c(N)ncnc32)C1)C1CC1 [Example 66] | < 100
30 | COc1cc(-c2nn(-c3ccc(N(C)C(=O)/C=C/CN(C)C)c(F)c3)c3ncnc(N)c23)ccc1C [Example 62] | < 100
31 | COc1cc(-c2nn(-c3ccc(N(C)C(=O)/C=C/CN(C)C4CC4)c(F)c3)c3ncnc(N)c23)ccc1C [Example 68] | < 100
32 | C=CC(=O)N1CC[C@@H](n2nc(-c3ccc(F)c(OC)c3)c3c(N)ncnc32)C1 [Example 85b] | < 100
33 | COc1cc(-c2nn(-c3ccc(N(C)C(=O)/C=C/CN(C)C)c(Cl)c3)c3ncnc(N)c23)ccc1C [Example 52] | < 100
34 | COc1cc(-c2nn(-c3ccc(F)c(N(C)C(=O)/C=C/CN(C)C4CC4)c3)c3ncnc(N)c23)ccc1C [Example 76] | < 100
35 | C=CC(=O)N1CC[C@@H](n2nc(-c3ccc(Cl)cc3)c3c(N)ncnc32)C1 [Example 36] | < 100
36 | COc1cc(-c2nn(C3CCN(C(=O)/C=C/CN(C)C4CC4)CC3)c3ncnc(N)c23)ccc1C [Example 57] | < 100
37 | CN(C)C/C=C/C(=O)N1CCC[C@@H](n2nc(-c3ccc(Cl)cc3)c3c(N)ncnc32)C1 [Example 46] | < 100
38 | COCCOc1ccc(-n2nc(-c3ccc(C)c(OC)c3)c3c(N)ncnc32)cc1NC(=O)/C=C/CN(C)C [Example 41] | < 100
39 | C=CC(=O)N1CCC[C@@H](n2nc(-c3ccc(Cl)cc3)c3c(N)ncnc32)C1 [Example 85] | < 100
40 | COc1cc(-c2nn(-c3cccc(NC(=O)/C=C/CN(C)C)c3)c3ncnc(N)c23)ccc1C [Example 35] | < 100
41 | COc1cc(-c2nn(CC3CCN(C(=O)/C=C/CN(C)C)CC3)c3ncnc(N)c23)ccc1C [Example 48] | < 100
42 | CCN(C/C=C/C(=O)N(C)c1ccc(-n2nc(-c3ccc(Cl)cc3)c3c(N)ncnc32)cc1)C1CC1 [Example 33] | < 100
43 | COc1cc(-c2nn(C[C@H]3CCCN3C(=O)/C=C/CN(C)C)c3ncnc(N)c23)ccc1C [Example 50] | < 100
44 | COc1cc(-c2nn([C@H]3CC[C@@H](N(C)C(=O)/C=C/CN(C)C)CC3)c3ncnc(N)c23)ccc1C [Example 73] | < 100
45 | C=CC(=O)N1CC(n2nc(-c3ccc(C)c(OC)c3)c3c(N)ncnc32)C1 [Example 79] | < 100
46 | COc1cc(-c2nn([C@H]3CC[C@@H](NC(=O)/C=C/CN(C)C4CC4)CC3)c3ncnc(N)c23)ccc1C [Example 59] | < 100
47 | COCCOc1ccc(-n2nc(-c3ccc(C)c(OC)c3)c3c(N)ncnc32)cc1N(C)C(=O)/C=C/CN(C)C [Example 70] | < 100
48 | COc1cc(-c2nn(-c3cccc(N(C)C(=O)/C=C/CN(C)C)c3)c3ncnc(N)c23)ccc1C [Example 38] | < 100
49 | COc1cc(-c2nn(-c3ccc(N(C)S(=O)(=O)/C=C/CN(C)C)cc3)c3ncnc(N)c23)ccc1C [Example 82] | < 100
50 | COc1cc(-c2nn(-c3cccc(N(C)C(=O)/C=C/CN(C)C)n3)c3ncnc(N)c23)ccc1C [Example 30] | < 100
51 | COc1cc(-c2nn(-c3ccc(OCC(C)(C)O)c(N(C)C(=O)/C=C/CN(C)C)c3)c3ncnc(N)c23)ccc1C [Example 77] | < 100
